Measurements taken from patent publication US8987195B2 (priority 2012, dated 2015).

Columns and labels:
[1] = test system: HCV genotype 1b replicon; assay: HCV replicon assay, genotype 1b replicon EC50; type: cell-based, Hepatitis C virus; details: Hepatitis C virus, genotype 1b replicon; HCOOH salt; read-out: EC50 [gt-1b]
Method in brief: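 Cells harbouring a stable replicon are grown under G418 selection, then plated with test compound in G418-free medium for 24-48 hours. After washing and lysis, RNA or luciferase signal is measured and expressed as percent of DMSO control to give EC50.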

[2] = target: HCV NS3/4A protease genotype 1b (Hepatitis C virus genotype 1b, UniProt P26663); assay: HCV NS3/4A protease time-resolved fluorescence (TRF) assay, Ki against genotype 1b; type: biochemical; details: IC50 [gt-1b] (nM), NS3/4A genotype 1b, enzyme 0.2 nM; HCOOH salt
Method in brief: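 Ki was converted from fitted IC50 using IC50=Ki(1+[S]/KM) and 25 nM substrate. Protease (genotype 1b 0.2 nM, A156T 0.4 nM, 3a 0.025 nM) and compound were pre-mixed 30 min in pH 7.5 HEPES/NaCl/glycerol/DTT buffer. Cleavage then proceeded 2.5 h at room temperature, detected by time-resolved europium fluorescence (340/615 nm).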

CCCCOC(=O)N[C@H]1CCCCC/C=C\[C@@H]2C[C@@]2(C(=O)NS(=O)(=O)C2(C)CC2)NC(=O)[C@@H]2C[C@]3(CCc4c(c(C5CC5)nc5cc(OC)ccc45)O3)CN2C1=O [Example 272, butyl [(2R,6S,12Z,13aS,14aR,16aS)-5′-cyclopropyl-8′-methoxy-14a-{[(1-methylcyclopropyl)sulfonyl]carbamoyl}-5,16-dioxo-1,1′,2′,5,6,7,8,9,10,11,13a,14,14a,15,16,16a-hexadecahydrospiro[cyclopropa[e]pyrrolo[1,2-a][1,4]diazacyclopentadecine-2,3′-pyrano[2,3-c]quinolin]-6-yl]carbamate]
EC50 [1]: 11.2 nM | IC50 [2]: 0.116 nM

CCCCCOC(=O)N[C@H]1CCCCC/C=C\[C@@H]2C[C@@]2(C(=O)NS(=O)(=O)C2(C)CC2)NC(=O)[C@@H]2C[C@]3(CCc4c(c(C5CC5)nc5cc(OC)ccc45)O3)CN2C1=O [Example 273, pentyl [(2R,6S,12Z,13aS,14aR,16aS)-5′-cyclopropyl-8′-methoxy-14a-{[(1-methylcyclopropyl)sulfonyl]carbamoyl}-5,16-dioxo-1,1′,2′,5,6,7,8,9,10,11,13a,14,14a,15,16,16a-hexadecahydrospiro[cyclopropa[e]pyrrolo[1,2-a][1,4]diazacyclopentadecine-2,3′-pyrano[2,3-c]quinolin]-6-yl]carbamate]
EC50 [1]: 163 nM | IC50 [2]: 1.13 nM

COc1ccc2c3c(c(C4CC4)nc2c1)O[C@]1(CC3)C[C@H]2C(=O)N[C@]3(C(=O)NS(=O)(=O)C4(C)CC4)C[C@H]3/C=C\CCCCC[C@H](NC(=O)Oc3ccc(C)cc3)C(=O)N2C1 [Example 274, 4-methylphenyl [(2R,6S,12Z,13aS,14aR,16aS)-5′-cyclopropyl-8′-methoxy-14a-{[(1-methylcyclopropyl)sulfonyl]carbamoyl}-5,16-dioxo-1,1′,2′,5,6,7,8,9,10,11,13a,14,14a,15,16,16a-hexadecahydrospiro[cyclopropa[e]pyrrolo[1,2-a][1,4]diazacyclopentadecine-2,3′-pyrano[2,3-c]quinolin]-6-yl]carbamate]
EC50 [1]: 28.3 nM | IC50 [2]: 0.832 nM

COc1ccc2c3c(c(C4CC4)nc2c1)O[C@]1(CC3)C[C@H]2C(=O)N[C@]3(C(=O)NS(=O)(=O)C4(C)CC4)C[C@H]3/C=C\CCCCC[C@H](NC(=O)O[C@H]3C[C@@H](C)CC[C@@H]3C(C)C)C(=O)N2C1 [Example 275, (1S,2R,5S)-5-methyl-2-(propan-2-yl)cyclohexyl [(2R,6S,12Z,13aS,14aR,16aS)-5′-cyclopropyl-8′-methoxy-14a-{[(1-methylcyclopropyl)sulfonyl]carbamoyl}-5,16-dioxo-1,1′,2′,5,6,7,8,9,10,11,13a,14,14a,15,16,16a-hexadecahydrospiro[cyclopropa[e]pyrrolo[1,2-a][1,4]diazacyclopentadecine-2,3′-pyrano[2,3-c]quinolin]-6-yl]carbamate]
EC50 [1]: 39.5 nM | IC50 [2]: 11.3 nM

COc1ccc2c3c(c(C4CC4)nc2c1)O[C@]1(CC3)C[C@H]2C(=O)N[C@]3(C(=O)NS(=O)(=O)C4(C)CC4)C[C@H]3/C=C\CCCCC[C@H](NC(=O)O[C@@H]3C[C@H](C)CC[C@H]3C(C)C)C(=O)N2C1 [Example 276, (1R,2S,5R)-5-methyl-2-(propan-2-yl)cyclohexyl [(2R,6S,12Z,13aS,14aR,16aS)-5′-cyclopropyl-8′-methoxy-14a-{[(1-methylcyclopropyl)sulfonyl]carbamoyl}-5,16-dioxo-1,1′,2′,5,6,7,8,9,10,11,13a,14,14a,15,16,16a-hexadecahydrospiro[cyclopropa[e]pyrrolo[1,2-a][1,4]diazacyclopentadecine-2,3′-pyrano[2,3-c]quinolin]-6-yl]carbamate]
EC50 [1]: 104 nM | IC50 [2]: 3.97 nM
